SMILES strings stand for the structures.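 The compound was tested at five concentrations on cells cultured in 96-well plates, with a 48-hour exposure period. Definition used: TGI = concentration required for complete inhibition of growth.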

Common to all, as to test: inhibition of tumour cell growth, NCI panel, 48 h
Assay [1] relates to A498 renal.
Assay [2] concerns SF-295 CNS.
Assay [3] concerns NCI/ADR-RES ovarian.
Assay [4] deals with IGROV1 ovarian.
The test system of assay [5] is TK-10 renal.
Assay [6] has as its system A549 NSCLC.
Assay [7] concerns EKVX NSCLC.
The test system of assay [8] is SN12C renal.
The subject of assay [9] is HCT-15 colon.
The test system of assay [10] is MOLT-4 leukemia.

With `Cc1ccc2oc3c(ccc(=O)n3C)c(=O)c2c1`, the TGI in [1], in assay [2], in assay [3], in [4], in assay [5] and in [6] was greater than 100 µM in each case. In addition, the TGI in assay [7], in assay [8] and in [9] was greater than 100 µM each time.
For `COc1cc(S(=O)(=O)Nc2ccc(-c3csc(/N=C\c4cccs4)n3)cc2)ccc1Cl`, the TGI in assay [1], in [2], in assay [3], in [4], in assay [5] and in assay [6] was greater than 100 µM in each case. The TGI in assay [7], in [8] and in [9] was greater than 100 µM throughout.
For `CC(=O)c1sc2c(c1O)c(=O)n(-c1ccccc1)c(=S)n2-c1ccccc1`, the TGI in [2], in assay [10], in assay [4], in [5], in assay [6] and in assay [8] was greater than 100 µM in each case. In [9], this compound gave a TGI greater than 100 µM.
For the compound `FC(F)(F)c1cnc(N/N=C(/c2ccccc2)c2ccccn2)c(Cl)c1`, the TGI in assay [2] was 11 µM; in assay [10] it was greater than 100 µM; in assay [3] it was 6.92 µM; in assay [4] it was 11.5 µM; in [6] it was 14.8 µM; in assay [7] it was 17.5 µM. Also, the TGI is greater than 100 µM in [8] and 33.7 µM in assay [9].
For the compound `CC1CCN(c2cc(-c3cc4ccccc4o3)oc(=O)c2C#N)CC1`, the TGI in assay [1], in assay [2], in [10], in assay [4], in assay [5] and in [6] was greater than 100 µM in each case. Moreover, the TGI in assay [7], in assay [8] and in assay [9] was greater than 100 µM throughout.
Take `COC(=O)c1cc2ccccc2c2nc3ccccc3c(Cl)c12`: the TGI in assay [1], in assay [2], in assay [10], in [4], in assay [5] and in [6] was greater than 100 µM each time. Moreover, the TGI in assay [7], in assay [8] and in assay [9] was greater than 100 µM each time.
Regarding `CC1=C2CC(C)(C)CC(=O)C2(C)CCC1=O` (centres undefined), the TGI in assay [2], in [10], in assay [3], in assay [4], in [5] and in assay [6] was greater than 100 µM in each case. The TGI in assay [7], in [8] and in [9] was greater than 100 µM each time.
For `O=C1CC(=O)NC(=NN2C(=O)/C(=C/c3ccc(Cl)cc3)N=C2c2ccccc2)N1`, the TGI in assay [1] was found to be 31.7 µM; in assay [2], 33 µM; in assay [10], 22.7 µM; in assay [3], 31.8 µM; in [4] it was 27.4 µM; in [5], 43.2 µM. Further, the results for the TGI in assay [6], in [8] and in assay [9] were 30 µM, 32.3 µM and 30.8 µM, respectively.
For `Nc1c(C(=O)c2ccccc2)nnc2ccccc12`, the TGI is greater than 100 µM in assay [10]; 64.6 µM in assay [3]; greater than 100 µM in assay [4]; 54.7 µM in assay [5]; greater than 100 µM in assay [6]; greater than 100 µM in assay [7]. In addition, the TGI in assay [9] was greater than 100 µM.
With `CC(=O)Oc1ccc2cc(Oc3ccccc3)c(=O)oc2c1`, the TGI in assay [1], in [2], in [4], in assay [5], in [6] and in [7] was greater than 100 µM each time. The TGI in assay [8] and in assay [9] was greater than 100 µM in each case.
Take `Cn1cnnc1SC(F)(F)c1nc2ccccc2o1`: the TGI in [1], in assay [2], in assay [10], in [3], in assay [4] and in assay [5] was greater than 100 µM in each case. Further, the TGI in [6], in [8] and in assay [9] was greater than 100 µM throughout.
As for `CC1=CC(=O)c2c(O)c3c(c(O)c2C1=O)C1C(O)C(C3=O)C23C(=O)c4c(O)c(C)cc(O)c4C(O)=C2C(=O)CC(O)C13` (centres undefined), the TGI in [1] amounted to 3.37 µM; in assay [2], 2.3 µM; in assay [10], 13 µM; in [4], 6.58 µM; in [5] it was 11.6 µM; in assay [6], 10.8 µM. Further, the TGI in assay [7] came out at 8.21 µM; in [8], 5.55 µM; in assay [9] it was 6.91 µM.
Consider `O=C1NC2=NN=C(c3ccc(Br)cc3)CN2NC12c1ccccc1-c1ccccc12`, for which the TGI in [1], in assay [2], in assay [3], in assay [4], in assay [5] and in assay [6] was greater than 100 µM in each case. For the same compound, the TGI in [7], in assay [8] and in assay [9] was greater than 100 µM in each case.
For the compound `CC(=O)Nc1sccc1S(=O)(=O)c1ccc(Cl)cc1`, the TGI in assay [2], in assay [10], in [3], in [4], in [5] and in assay [6] was greater than 100 µM throughout. The TGI in assay [7], in assay [8] and in [9] was greater than 100 µM in each case.
Turning to `O=S(=O)(O)c1ccc2c(N=Nc3c(O)ccc4ccccc34)cccc2c1`, the TGI in [1], in assay [2], in assay [3], in [4], in assay [5] and in [6] was greater than 100 µM in each case. The TGI in assay [7], in [8] and in [9] was greater than 100 µM each time.

The record behind these values is PubChem BioAssay (NCI).
